In ChEMBL document CHEMBL3217729, “Sangamides, a new class of cyclophilin-inhibiting host-targeted antivirals for treatment of HCV infection” (Medchemcomm, 2012):
Converted amounts (≈) assume the structure as drawn.

Legend:
[1] = Half life in human liver microsomes at 1 uM by LC-MS/MS analysis; type: ADME
in vitro = conditions: mouse, liver microsomes
Description: Half life in mouse liver microsomes at 1 uM by LC-MS/MS analysis

[2] = Solubility of the compound in phosphate buffered saline at pH 7.4 after 4 hrs by LC-MS/MS analysis
[3] = Cytostatic activity against human Huh5-2 cells assessed as decrease in cell proliferation after 3 days by MTS method; type: ADME, cell-based, Huh-5-2
[4] = Half life in human hepatocytes at 1 uM by LC-MS/MS analysis; type: ADME, cell-based, Hepatocyte
Hepatitis C virus [5] = experiment: Antiviral activity against Hepatitis C virus genotype 1b I389luc-ubi-neo/NS3-3'/5.1 subgenomic replicon infected in human Huh5-2 cells after 4 days by luciferase assay; type: functional, cell-based, Hepacivirus hominis; conditions: Huh-5-2, 96 h
[6] = Selectivity index, ratio of CC50 for human Huh5-2 cells to EC50 for Hepatitis C virus genotype 1b I389luc-ubi-neo/NS3-3'/5.1 subgenomic replicon infected in human Huh5-2 cells; type: toxicity, cell-based, Huh-5-2; conditions: read-out: Ratio CC50/EC50
[7] = molecular target: T1, Peptidyl-prolyl cis-trans isomerase A (Homo sapiens, UniProt P62937); experiment: Inhibition of recombinant GST-tagged CypA (unknown origin)/HCV Con1 NS5A-His interaction after 16 hrs by ELISA
PBMC = experiment: Immunosuppressive activity in human PBMC isolated from two individuals assessed as inhibition of proliferation using [3H]thymidine by mixed lymphocyte reaction assay; type: cell-based
Hepatitis C virus [8] = experiment: Antiviral activity against Hepatitis C virus genotype 1b Con1 infected in human Huh7 cells assessed as decrease in subgenomic RNA level after 72 hrs by RT-PCR analysis; type: functional, cell-based, Hepacivirus hominis; conditions: genotype 1b Con1, Huh-7, 72 h
Hepatitis C virus [9] = experiment: Antiviral activity against Hepatitis C virus genotype 1a H77 infected in human Huh7 cells assessed as decrease in subgenomic RNA level after 72 hrs by RT-PCR analysis; type: functional, cell-based, Hepacivirus hominis; conditions: genotype 1a H77, Huh-7, 72 h
Hepatitis C virus [10] = experiment: Antiviral activity against Hepatitis C virus genotype 2a JFH-1 infected in human Huh7 cells assessed as decrease in subgenomic RNA level after 72 hrs by RT-PCR analysis; type: functional, cell-based, Hepacivirus hominis; conditions: genotype 2a JFH-1, Huh-7, 72 h
[11] = molecular target: T1, Peptidyl-prolyl cis-trans isomerase A; experiment: Inhibition of PPIase activity of recombinant CypA (unknown origin) assessed as chymotrypsin-mediated N-succinyl-Ala-Ala-Pro-Phe-p-nitroanilide hydrolysis after 1 hr by spectrophotometric analysis
physchem = conditions: n-octanol/potassium phosphate buffer, pH 7.4
[12] = Percentage bound in human plasma at 1 uM after 5 hrs by dialysis chamber method; type: ADME, cell-free; conditions: read-out: PPB (converted)

T1 sequence (P62937 whole entry): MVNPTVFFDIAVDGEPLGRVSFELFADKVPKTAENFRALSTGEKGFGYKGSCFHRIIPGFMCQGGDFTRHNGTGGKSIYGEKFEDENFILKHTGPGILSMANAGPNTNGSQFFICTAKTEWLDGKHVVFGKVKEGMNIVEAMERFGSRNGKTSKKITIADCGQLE

SMILES | half-life at 1 µM [1] | half-life at 1 µM (in vitro) | solubility at 4 h [2] | CC50 at 72 h [3] | half-life at 1 µM [4] | EC50 (Hepatitis C virus [5]) | EC90 (Hepatitis C virus [5]) | selectivity ratio [6] | IC50 [7] | IC50 (PBMC) | EC50 (Hepatitis C virus [8]) | EC50 (Hepatitis C virus [9]) | EC50 (Hepatitis C virus [10]) | IC50 [11] | logD at 1 h (physchem) | fraction unbound at 5 h, 1 µM [12]
CC(=O)CC[C@H]1C(=O)N[C@@H](C(C)C)C(=O)N[C@@H](Cc2cccc(O)c2)C(=O)N2CCCC(N2)C(=O)O[C@H](/C(C)=C/C=C/C(=O)N(C)C2CCCCC2)C/C=C/C=C/[C@H](O)[C@H](C)[C@H]1O (stereo partly drawn) | 3.3 min | 1.9 min | 48 µM (≈ 42.1 µg/mL) | 66000 nM | > 240 min | 148 nM | 1900 nM | 446 | 420 nM | – | – | – | – | – | – | –
C/C=C/C[C@@H](C)[C@@H](O)[C@H]1C(=O)N[C@@H](CC)C(=O)N(C)[C@H](C)C(=O)N(CC)[C@@H](C(C)C)C(=O)N[C@@H](C(C)C)C(=O)N(C)[C@@H](CC(C)C)C(=O)N[C@@H](C)C(=O)N[C@H](C)C(=O)N(C)[C@@H](CC(C)C)C(=O)N(C)[C@@H](CC(C)C)C(=O)N(C)[C@@H](C(C)C)C(=O)N1C [ALISPORIVIR] | – | – | – | – | – | – | – | – | – | 840 nM | – | – | – | – | – | –
CC(=O)CC[C@H]1C(=O)N[C@@H](C(C)C)C(=O)N[C@@H](Cc2cccc(O)c2)C(=O)N2CCCC(N2)C(=O)O[C@H](/C(C)=C/C=C/C(=O)Nc2cccnc2)C/C=C/C=C/[C@H](O)[C@H](C)[C@H]1O (stereo in doubt) | 7.5 min | 3.3 min | 18 µM (≈ 15.4 µg/mL) | > 100000 nM | 116 min | 2480 nM | 5410 nM | > 40 | 460 nM | – | – | – | – | – | – | –
CCC[C@H](NC(=O)[C@@H]1[C@H]2CCC[C@H]2CN1C(=O)[C@@H](NC(=O)[C@@H](NC(=O)c1cnccn1)C1CCCCC1)C(C)(C)C)C(=O)C(=O)NC1CC1 | – | – | – | > 74000 nM | – | 235 nM | 838 nM | > 315 | – | – | 720 nM | – | – | – | – | –
C/C=C/C[C@@H](C)[C@@H](O)[C@H]1C(=O)N[C@@H](CC)C(=O)N(C)CC(=O)N(C)[C@@H](CC(C)C)C(=O)N[C@@H](C(C)C)C(=O)N(C)[C@@H](CC(C)C)C(=O)N[C@@H](C)C(=O)N[C@H](C)C(=O)N(C)[C@@H](CC(C)C)C(=O)N(C)[C@@H](CC(C)C)C(=O)N(C)[C@@H](C(C)C)C(=O)N1C [CYCLOSPORINE] | – | – | – | – | – | 306 nM | 1000 nM | – | – | – | 137 nM | 198 nM | 455 nM | – | – | –
CC(=O)CC[C@H]1C(=O)N[C@@H](C(C)C)C(=O)N[C@@H](Cc2cccc(O)c2)C(=O)N2CCCC(N2)C(=O)O[C@H](/C(C)=C/C=C/C(=O)NC(C)C)C/C=C/C=C/[C@H](O)[C@H](C)[C@H]1O (stereo in doubt) | 16.9 min | 6.4 min | 12 µM (≈ 9.86 µg/mL) | > 100000 nM | 59 min | 560 nM | 4600 nM | > 179 | 380 nM | – | – | – | – | – | – | –
CCN(CC)C(=O)/C=C/C=C(\C)[C@@H]1C/C=C/C=C/[C@H](O)[C@H](C)[C@@H](O)[C@@H](CCC(C)=O)C(=O)N[C@@H](C(C)C)C(=O)N[C@@H](Cc2cccc(O)c2)C(=O)N2CCCC(N2)C(=O)O1 (stereo partly drawn) | 16.8 min | 8.4 min | > 100 µM | > 100000 nM | 94 min | 204 nM | 1200 nM | > 490 | 350 nM | – | – | – | – | – | – | –
CC(=O)CC[C@H]1C(=O)N[C@@H](C(C)C)C(=O)N[C@@H](Cc2cccc(O)c2)C(=O)N2CCCC(N2)C(=O)O[C@H](/C(C)=C/C=C/C(=O)N(C)C)C/C=C/C=C/[C@H](O)[C@H](C)[C@H]1O (stereo partly drawn) | 48 min | 24.7 min | > 100 µM | > 100000 nM | 128 min | 349 nM | 62000 nM | > 287 | 630 nM | – | – | – | – | – | – | –
CC(=O)CC[C@H]1C(=O)N[C@@H](C(C)C)C(=O)N[C@@H](Cc2cccc(O)c2)C(=O)N2CCCC(N2)C(=O)O[C@H](/C(C)=C/C=C/C(=O)Nc2ccccn2)C/C=C/C=C/[C@H](O)[C@H](C)[C@H]1O (stereo in doubt) | 4.4 min | 8.8 min | 61 µM (≈ 52.3 µg/mL) | 40000 nM | 95 min | 167 nM | 740 nM | 240 | 390 nM | – | – | – | – | 4.1 nM | – | –
CC(=O)CC[C@H]1C(=O)N[C@@H](C(C)C)C(=O)N[C@@H](Cc2cccc(O)c2)C(=O)N2CCCC(N2)C(=O)O[C@H](/C(C)=C/C=C/C(=O)Nc2ccncc2)C/C=C/C=C/[C@H](O)[C@H](C)[C@H]1O (stereo partly drawn) | 32.2 min | 15.2 min | 15 µM (≈ 12.9 µg/mL) | > 100000 nM | > 240 min | 8060 nM | 31900 nM | > 12.4 | 550 nM | – | – | – | – | – | – | –
CC(=O)CC[C@H]1C(=O)N[C@@H](C(C)C)C(=O)N[C@@H](Cc2cccc(O)c2)C(=O)N2CCCC(N2)C(=O)O[C@H](/C(C)=C/C=C/C(=O)Nc2ccc(-c3ccccc3)cc2)C/C=C/C=C/[C@H](O)[C@H](C)[C@H]1O (stereo in doubt) | 2.3 min | 1.3 min | 2 µM (≈ 1.86 µg/mL) | > 100000 nM | > 240 min | 208 nM | 1150 nM | > 481 | 520 nM | – | – | – | – | – | – | –
CNC(=O)/C=C/C=C(\C)[C@@H]1C/C=C/C=C/[C@H](O)[C@H](C)[C@@H](O)[C@@H](CCC(C)=O)C(=O)N[C@@H](C(C)C)C(=O)N[C@@H](Cc2cccc(O)c2)C(=O)N2CCCC(N2)C(=O)O1 (stereo in doubt) | 37.2 min | 22.5 min | > 100 µM | > 100000 nM | 192 min | 8000 nM | 60200 nM | > 13 | 500 nM | – | – | – | – | – | – | –
C=CCNC(=O)/C=C/C=C(\C)[C@@H]1C/C=C/C=C/[C@H](O)[C@H](C)[C@@H](O)[C@@H](CCC(C)=O)C(=O)N[C@@H](C(C)C)C(=O)N[C@@H](Cc2cccc(O)c2)C(=O)N2CCCC(N2)C(=O)O1 (stereo in doubt) | 23.9 min | 10.6 min | – | 48000 nM | 139 min | 1600 nM | 8500 nM | 30 | 360 nM | – | – | – | – | – | – | –
CC(=O)CC[C@H]1C(=O)N[C@@H](C(C)C)C(=O)N[C@@H](Cc2cccc(O)c2)C(=O)N2CCCC(N2)C(=O)O[C@H](/C(C)=C/C=C/C(=O)N2CCOCC2)C/C=C/C=C/[C@H](O)[C@H](C)[C@H]1O (stereo partly drawn) | 50.3 min | 18 min | > 100 µM | – | > 240 min | 1400 nM | 7400 nM | > 72 | 330 nM | – | – | – | – | – | – | –
CC(=O)CC[C@H]1C(=O)N[C@@H](C(C)C)C(=O)N[C@@H](Cc2cccc(O)c2)C(=O)N2CCCC(N2)C(=O)O[C@H](/C(C)=C/C=C/C(=O)N(CC(C)C)CC(C)C)C/C=C/C=C/[C@H](O)[C@H](C)[C@H]1O (stereo partly drawn) | 21.6 min | 2.5 min | – | 2100 nM | 98 min | 309 nM | 1100 nM | 6.8 | 390 nM | – | – | – | – | – | – | –
CC(=O)CC[C@H]1C(=O)N[C@@H](C(C)C)C(=O)N[C@@H](Cc2cccc(O)c2)C(=O)N2CCCC(N2)C(=O)O[C@H](/C(C)=C/C=C/C(=O)N(C)c2ccccn2)C/C=C/C=C/[C@H](O)[C@H](C)[C@H]1O (stereo partly drawn) | 19.1 min | 9.8 min | 17 µM (≈ 14.8 µg/mL) | > 100000 nM | 150 min | 2010 nM | 11500 nM | > 50 | 330 nM | – | – | – | – | – | – | –
CC[C@H]1C[C@H](C)[C@@]2(NC1=O)O[C@@H](C[C@H](O)[C@@H](C)CC/C=C/C=C(\C)[C@@H]1C/C=C/C=C/[C@H](O)[C@H](C)[C@@H](O)[C@@H](CCC(C)=O)C(=O)N[C@@H](C(C)C)C(=O)N[C@@H](Cc3cccc(O)c3)C(=O)N3CCCC(N3)C(=O)O1)[C@H](C)[C@H](O)[C@@H]2C (stereo partly drawn) | 7.9 min | 4 min | 45 µM (≈ 49.1 µg/mL) | 9100 nM | 145 min | 318 nM | 5500 nM | – | – | 215 nM | 222 nM | 301 nM | 247 nM | – | > 3.7 | < 0.01
CC(=O)CC[C@H]1C(=O)N[C@@H](C(C)C)C(=O)N[C@@H](Cc2cccc(O)c2)C(=O)N2CCCC(N2)C(=O)O[C@H](/C(C)=C/C=C/C(=O)NC2CCCCC2)C/C=C/C=C/[C@H](O)[C@H](C)[C@H]1O (stereo in doubt) | 6.5 min | 2.7 min | 29 µM (≈ 25 µg/mL) | > 100000 nM | > 240 min | 336 nM | 4230 nM | > 298 | 450 nM | – | – | – | – | – | – | –
